Test system: thoracic arteries of old rats
Test: Acetylcholine blood vessel relaxation reaction test on thoracic artery rings after 3 months of diet
Type: in vivo, rat
Source text: The effect of triglyceride (arachidonic acid-containing oil (SUNTGA40S)) having arachidonic acid as a component fatty acid prepared in Reference Example 1 on the acetylcholine blood vessel relaxation reaction was investigated using rats. As the test groups of old rats, 15 19-month old male Fischer rats were divided into a control diet group (8 rats: OC group) and a SUNTGA40S compound diet group (7 rats: OA group).
The amount of intake of rats was about 20 g and the daily intake of SUNTGA40S per rat was 100 mg. Of the total fatty acids bonded with the arachidonic acid-containing oil (SUNTGA40S) prepared in Reference Example 1, 40% is arachidonic acid, so the daily intake of arachidonic acid per rat became 40 mg. This 40 mg corresponds to 133 mg/60 kg/day converted to human intake.
In the third month of raising (in the case of old rats, 22-month age and in the case of young rats, four-month age), the thoracic arteries were excised. Part was used for the in vitro blood vessel relaxation reaction test, while the remaining blood vessels were used for analysis of the fatty acid composition. […]

CCCCC/C=C\C/C=C\C/C=C\C/C=C\CCCC(=O)OC(COC(=O)CCCCCCC)COC(=O)CCCCCCC [8A8, 1,3-capryloyl-2-arachidonoyl-glycerol]
average blood vessel relaxation rate by acetylcholine 10^-7M (old male Fischer rats (22-month age), 8A8 diet 3 months (40 mg arachidonic acid/rat/day), old control diet 52.3%, young control diet 80.5%): 62.7% | blood vessel relaxation response (old rats, 8A8 diet 3 months, vs old rats on control diet): improved
